Read-outs that look alike come from different tables or passages of the source. Each block holds one molecule with its values, some of them ahead of it.
Legend:
ARPE-19 cells [1] = experiment: MTT cell viability assay on ARPE-19 cells; conditions: for Cell survival: 0.1% (w/v)
Source text: (§1) Cell viability and cell morphology were examined to evaluate the toxicity of excipients on retinal pigment epithelial cells. The human retina cell line used in these experiments is the ARPE-19 cell line (human adult-derived retinal pigmented epithelial cells). […] They form tight-junctions with transepithelial resistance of monolayers (Dunn K C et al., supra). From a molecular standpoint, it appears that ARPE-19 express a huge pattern of genes similar to those expressed by human RPE from fresh explant which could account for their physiological function (Klimanskaya I. et al., “Derivation and comparative assessment of retinal pigment epithelium from human embryonic stem cells using transcriptomics”, Cloning and Stem Cells, 2004, 6(3):217-45).
(§2) ARPE-19 cells are widely used as a retinal model that resemble physiological properties of RPE cells. Similar methods of culturing ARPE-19 cells and cytotoxicity assays can be found in Yeung et al., “Cytotoxicity of triamcinolone on cultured human retinal pigment epithelial cells: comparison with dexamethasone and hydrocortisone”, Jpn J. Ophthalmol, 2004; 48:236-242. Cell viability and cell morphology were examined using conventional colormetric and visual methods. Viability and morphology measurements were obtained at 24 hours, 48 hours, and 72 hours after exposure to an excipient composition.
(§3) To assess cell viability, mitochondrial metabolism was quantified through conventional colorometric assays (i.e., the MTT assay). This calorimetric assay utilizes 3-(4,5-dimethylthiazol-2-yl)-2,5-diphenyltetrazolium bromide (MTT) and correlates mitochondrial metabolism and cell viability through measurement of dehydrogenase activity which converts a substrate into crystal. More specifically, the assay measures the activity of living cells through mitochondrial dehydrogenases. When dissolved in culture cell medium, MTT solution appears dark orange. Mitochondrial dehydrogenases of viable cells degrade MTT by cleaving the tetrazolium ring yielding to formation of a purple formazan crystal, which is insoluble in water. Crystals are subsequently dissolved in isopropanol solution. A resulting purple solution is spectrophotometrically measured. Cell viability is relative to amount of formazan and calculated as a percentage of remaining treated compared to non-treated cells.
(§4) Results from the MTT assay were expressed as a percentage of cell viability calculated using the following equation: % cell viability=ODtest/ODcontrol×100.
(§5) For each experiment, one concentration was performed in triplicate. Each point was spectrophotometrically read twice. Average of readings was calculated, then average from these 3 values was determined.
(§6) After 3 experiments were independently completed under the same conditions, a graph was plotted with cell viability expressed as a function of concentration (dose response) and for various incubation period (time course). The IC50 was then estimated based on the graphed data.
(§7) More specifically, cell density in 24-multiwell plates was observed on the day of the experiment to check if confluence of the cells was reached. Aliquots of MTT concentrated solutions were removed from a freezer at −20° C. and thawed at room temperature. Cell medium was warmed at 37° C. before use. Appropriated tubes for diluting compounds were prepared. Higher concentrations of each excipient agent was prepared. Serial dilution was then performed in cell medium (DMEM:F12+10% FBS).
(§8) Cell culture medium in the 24-well plate was removed using vacuum-pump. Cells were then stimulated with 0.5 ml final volume for each concentration of one given excipient agent. Distribution of the excipient-containing solution was performed using automated pipet-aid in sterile environment (under PSM) or not depending on time of compounds and duration of incubation.
(§9) After stimulation, cells were replaced in a CO2 incubator for the required time of exposure.

ARPE-19 cells [2] = format: cell-based
Procedure: Cell morphology was visualized using light microscopy. Cell morphology observation using light microscopy permits determination of (i) cell number and density and (ii) whether or not cells in contact with an excipient agent display modified phenotype compared to a non-treated population of cells.
Cell morphology was analyzed in parallel by semi-quantitative scoring ranging from 5 to 1, from basal to lethal phenotype respectively, as shown in FIG. 23.
More specifically, cells were removed from an incubator for examination. Morphological shape of cells was visualized using a light microscope and CCD camera. Every 3 wells of a given concentration was observed through image analysis software. Then, a representative photograph describing the average appearance of cells was saved. The supernatant was either, kept for further predefined experiments to perform, or removed using vacuum-pump.
Resulting semi-quantitative scoring is represented as a function of time course and dose response. Score 5 : wild type phenotype of non-treated cells, 100% confluent adherent cells. This phenotype very much vary following post-seeding time. For example, at confluence ARPE-19 cells at 1 day appear well defined with visible outer membrane and dark grey cytoplasm. After 3 days of confluence, limits between cells become less visible and cells adopt a more hexagonal shape and constitute an epithelium-like uniform dense structure. Score 4: density <100%. Cell shape has changed, some spaces are present between cells, few cells possibly detached. Score 3: 80% <Cell density <40%. Spaces are sometimes present among cells, areas appears confluent while in others, cells detached. General cell shape starts showing non negligible alterations. Score 2: Cell density <50%. Cells adopt exclusively stressed appearance, presence of mass dead floating cells. Score 1: Cell density <10%. Presence of almost exclusively dead cells.
Based on quotation, each condition of the applied compound was given a score which allow to a morphology evolution profile to be prepared, ie. cell morphology as a function of compound concentration and time of exposure. […]

[3] = pH of excipient-containing incubating solutions; format: physicochemical
Procedure: (§10) For each concentration of tested compound, pH and osmolarity parameters were measured.

[4] = Osmolarity of excipient-containing incubating solutions; format: physicochemical
Procedure: Osmolarity was measured using osmometer type 13/13DR from Roebling (Berlin, GR).
as §10

in vitro = conditions: human, Cell viability
Source text: as §1, §2, §3, §4, §5, §6, §7, §8, §9

- IC50 based on cell morphology (ARPE-19 cells [2]; ARPE-19, estimated from morphology data): about 0.07%
- Morphology limit concentration (%) (ARPE-19 cells [2]; human): 0.07%
- Cell morphology score, Mean (ARPE-19 cells [2]; human, 24 h, 0.05 %): 3.3
- Cell morphology score, Mean (ARPE-19 cells [2]; human, 24 h, 0.1 %): 3.0
- Cell morphology score, Mean (ARPE-19 cells [2]; human, 24 h, 0.5 %): 1.0
- Cell morphology score, Mean (ARPE-19 cells [2]; human, 24 h, 1 %): 1.0
- Cell morphology score, Mean (ARPE-19 cells [2]; human, 24 h, 2 %): 1.0
- Cell morphology score, Mean (ARPE-19 cells [2]; human, 24 h, […]): 1.0
- Cell morphology score, Mean (ARPE-19 cells [2]; human, 48 h, 0.05 %): 3.7
- Cell morphology score, Mean (ARPE-19 cells [2]; human, 48 h, 0.1 %): 3.0
- Cell morphology score, Mean (ARPE-19 cells [2]; human, 48 h, 0.5 %): 1.0
- Cell morphology score, Mean (ARPE-19 cells [2]; human, 48 h, 1 %): 1.0
- Cell morphology score, Mean (ARPE-19 cells [2]; human, 48 h, 2 %): 1.0
- Cell morphology score, Mean (ARPE-19 cells [2]; human, 48 h, […]): 1.0
- Cell morphology score, Mean (ARPE-19 cells [2]; human, 72 h, 0.05 %): 3.3
- Cell morphology score, Mean (ARPE-19 cells [2]; human, 72 h, 0.1 %): 3.0
- Cell morphology score, Mean (ARPE-19 cells [2]; human, 72 h, 0.5 %): 1.0
- Cell morphology score, Mean (ARPE-19 cells [2]; human, 72 h, 1 %): 1.0
- Cell morphology score, Mean (ARPE-19 cells [2]; human, 72 h, 2 %): 1.0
- Cell morphology score, Mean (ARPE-19 cells [2]; human, 72 h, […]): 1.0
- pH of excipient dilution ([3]; 0.05% in culture medium): 8
- pH of excipient dilution ([3]; 0.1% in culture medium): 8.1
- pH of excipient dilution ([3]; 0.5% in culture medium): 8
- pH of excipient dilution ([3]; 1% in culture medium): 7.9
- pH of excipient dilution ([3]; 2% in culture medium): 8
- pH of excipient dilution ([3]; […] in culture medium): 7.9
- Osmolarity of excipient dilution ([4]; 0.05% in culture medium): 293 mOsm
- Osmolarity of excipient dilution ([4]; 0.1% in culture medium): 307 mOsm
- Osmolarity of excipient dilution ([4]; 0.5% in culture medium): 347 mOsm
- Osmolarity of excipient dilution ([4]; 1% in culture medium): 398 mOsm
- Osmolarity of excipient dilution ([4]; 2% in culture medium): 493 mOsm
- Osmolarity of excipient dilution ([4]; […] in culture medium): 444 mOsm
Molecule: OCc1ccccc1 [Benzyl alcohol, benzyl alcohol]
- MTT IC50 (%) (ARPE-19 cells [1]; ARPE-19 cells, summary Table 3): 0.07%
- Cell viability, experiments 1, 2, 3 (ARPE-19 cells [1]; human, 72 h, 0.05 %): 50.8%
- Living cells (observation) (ARPE-19 cells [2]): no living cells survived

Molecule: CCCCCCCC/C=C\CCCCCCCC(=O)OCCOCC(OCCO)C1OCC(OCCO)C1OCCO (centres unmarked) [Polysorbate 80, polysorbate 80]
- viability at 24 h, 0.01 % (in vitro; Mean (%)): 93.5%
- viability at 24 h, 0.02 % (in vitro; Mean (%)): 98.6%
- viability at 24 h, 0.04 % (in vitro; Mean (%)): 104%
- viability at 24 h, 0.06 % (in vitro; Mean (%)): 101%
- viability at 24 h, 0.08 % (in vitro; Mean (%)): 82.3%
- viability at 24 h, 0.1 % (in vitro; Mean (%)): 3.9%
- viability at 48 h, 0.01 % (in vitro; Mean (%)): 110%
- viability at 48 h, 0.02 % (in vitro; Mean (%)): 118%
- viability at 48 h, 0.04 % (in vitro; Mean (%)): 125%
- viability at 48 h, 0.06 % (in vitro; Mean (%)): 128%
- viability at 48 h, 0.08 % (in vitro; Mean (%)): 72.9%
- viability at 48 h, 0.1 % (in vitro; Mean (%)): 0.5%
- viability at 72 h, 0.01 % (in vitro; Mean (%)): 120%
- viability at 72 h, 0.02 % (in vitro; Mean (%)): 126%
- viability at 72 h, 0.04 % (in vitro; Mean (%)): 142%
- viability at 72 h, 0.06 % (in vitro; Mean (%)): 157%
- viability at 72 h, 0.08 % (in vitro; Mean (%)): 74.8%
- viability at 72 h, 0.1 % (in vitro; Mean (%)): 0.6%
- viability at 24 h, 0.01 % (in vitro; experiments 1, 2, 3): 90.3%
- viability at 24 h, 0.02 % (in vitro; experiments 1, 2, 3): 91.8%
- viability at 48 h, 0.01 % (in vitro; experiments 1, 2, 3): 109%
- viability at 48 h, 0.02 % (in vitro; experiments 1, 2, 3): 122%
- viability at 48 h, 0.04 % (in vitro; experiments 1, 2, 3): 126%
- viability at 72 h, 0.01 % (in vitro; experiments 1, 2, 3): 122%
- viability at 72 h, 0.02 % (in vitro; experiments 1, 2, 3): 129%
- viability at 72 h, 0.04 % (in vitro; experiments 1, 2, 3): 138%
- viability at 72 h, 0.06 % (in vitro; experiments 1, 2, 3): 148%
- Cell survival (ARPE-19 cells [1]): substantially zero cell survival
- Cell survival (ARPE-19 cells [1]; listed as Tween80): lethality
- pH of excipient dilution ([3]; 0.01% in culture medium): 7.5
- pH of excipient dilution ([3]; 0.02% in culture medium): 7.6
- pH of excipient dilution ([3]; 0.04% in culture medium): 7.5
- pH of excipient dilution ([3]; 0.06% in culture medium): 7.5
- pH of excipient dilution ([3]; 0.08% in culture medium): 7.5
- pH of excipient dilution ([3]; 0.1% in culture medium): 7.6
- Osmolarity of excipient dilution ([4]; 0.01% in culture medium): 310 mOsm
- Osmolarity of excipient dilution ([4]; 0.02% in culture medium): 307 mOsm
- Osmolarity of excipient dilution ([4]; 0.04% in culture medium): 313 mOsm
- Osmolarity of excipient dilution ([4]; 0.06% in culture medium): 346 mOsm
- Osmolarity of excipient dilution ([4]; 0.08% in culture medium): 390 mOsm
- Osmolarity of excipient dilution ([4]; 0.1% in culture medium): 523 mOsm

Molecule: hyaluronic acid [HA]
- Cell viability (ARPE-19 cells [1]): ~25%

Reference: US20050250737A1, “Therapeutic ophthalmic compositions containing retinal friendly excipients and related methods” (Allergan, Inc., priority 2003, published 2005)
